Results published in US20100266573A1, “METHOD AND MEANS FOR OBTAINING BRONCHORELAXATION” (Pharmalundensis AB, priority 2007, published 2010).

Experiments:
[1] = humans; cited from earlier work
[2] = system: patient with chronic obstructive pulmonary disease (COPD); assay: Administration of iodine on activated charcoal to a COPD patient, spirometric evaluation and observed bronchorelaxation; assay type: in vivo, human; details: same COPD patient; 50 mg elemental iodine in a gelatin capsule for a few days
Text: A person, had been smoking cigarettes daily for many years, but quit about 10 years ago. The decision to quit smoking was caused by increasing problems from the airways, with repeated episodes of pneumonia and airway obstruction. These symptoms were usually treated with antibiotics, steroids and bronchodilators.
After that, the airway symptoms increased considerably, with month-long episodes of cough and exercise-induced dyspnea.
In the following months the situation continued to worsen with loss of appetite, reduction of weight and severe dyspnea during rest, in spite of maximum treatment with anti-cholinergics, steroids and bronchodilators. The patient now felt desperately ill, and questioned how long they would be able to survive.
The severity of their condition prompted the patient to look for alternative treatments. […] […] […] A renewed spirometric evaluation a few months later confirmed the subjective improvements (FEV1=2.79 L, corresponding to 97.1% of their reference value and PEF=427 L/min, corresponding to 92.5% of their reference value).
The patient has continued to regularly take the combination for more than a year and still experiences the full benefit of it. A temporary discontinuation of the intake for a few days led to the reappearance of many of the symptoms. However, they quickly disappeared upon the resumption of the intake of iodinated activated charcoal. […]

[3] = may cause adverse effects in some individuals; cited from earlier work

| Compound | no-effect level [1] [mg/kg body weight] | bronchorelaxing effect [2] | iodine intake probably safe for the majority of the population [3] |
| --- | --- | --- | --- |
| [Br-].[Na+] [Sodium bromide, sodium bromide] | 4 | – | – |
| II [elemental iodine, iodine] | – | no distinct bronchorelaxing effect was observed | less than or equal to 1,000 mg/day |
